This is an account of results in article PMC12627232 (MedComm, 2025).

One data set concerns the target T1, HDAC2 (Homo sapiens, UniProt Q92769).
T1 construct: purchased BPS BIOSCIENCE Inc 50052
In words: HDACs enzymatic assay HDAC2. The data set is classed as biochemical. The following applies: Class I; mean ± SD of three. How it is done:
(§1) HDACs enzymatic assays were conducted according to our previous work. […] Substrates (Boc‐Lys(acetyl)‐AMC for HeLa nuclear extract, Ac‐Leu‐Gly‐Lys (Tfa)‐AMC for HDAC4, HDAC5, HDAC6, HDAC7, HDAC9, HDAC10, and HDAC11, Boc‐Lys(triflouroacetyl)‐AMC for HDAC8 and Ac‐Leu‐Gly‐Lys(acetyl)‐AMC for HDAC1, HDAC2, HDAC3) were added to the mixture. The blank group was set to no enzyme or drug but contains substrates and the control group was set to no drug but contains substrates and enzymes to each 96‐well plate. After 30 min of incubation at 37°C, the mixture was terminated with 1 mg/mL trypsin and 3 µM TSA. After another 30 min, the fluorescence intensity was measured using a Varioskan plate reader at 360/460 nm. […] The inhibition curves and IC50 values were simulated and calculated using the log(inhibitor) versus response (three parameters) mode in GraphPad Prism software.

The target of another data set is T2, HDAC8 (Homo sapiens, UniProt Q9BY41).
T2 construct: purchased BPS BIOSCIENCE Inc 50008
T2 sequence (Q9BY41 whole entry): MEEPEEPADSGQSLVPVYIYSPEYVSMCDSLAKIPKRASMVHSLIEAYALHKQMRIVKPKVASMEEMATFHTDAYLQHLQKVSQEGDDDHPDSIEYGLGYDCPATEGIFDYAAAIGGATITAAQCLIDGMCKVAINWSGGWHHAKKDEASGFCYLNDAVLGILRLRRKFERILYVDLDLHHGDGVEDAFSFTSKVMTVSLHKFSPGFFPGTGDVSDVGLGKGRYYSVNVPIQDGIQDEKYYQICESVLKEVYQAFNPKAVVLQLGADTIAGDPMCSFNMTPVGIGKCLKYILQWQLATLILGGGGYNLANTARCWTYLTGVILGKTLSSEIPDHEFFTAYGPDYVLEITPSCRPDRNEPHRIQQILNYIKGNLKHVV
Put plainly: HDACs enzymatic assay HDAC8. The format is biochemical. The method, then:
as §1

The target of the next data set is T3, HDAC5 (Homo sapiens, UniProt Q9UQL6).
T3 construct: purchased BPS BIOSCIENCE Inc 50005
T3 sequence (Q9UQL6 whole entry): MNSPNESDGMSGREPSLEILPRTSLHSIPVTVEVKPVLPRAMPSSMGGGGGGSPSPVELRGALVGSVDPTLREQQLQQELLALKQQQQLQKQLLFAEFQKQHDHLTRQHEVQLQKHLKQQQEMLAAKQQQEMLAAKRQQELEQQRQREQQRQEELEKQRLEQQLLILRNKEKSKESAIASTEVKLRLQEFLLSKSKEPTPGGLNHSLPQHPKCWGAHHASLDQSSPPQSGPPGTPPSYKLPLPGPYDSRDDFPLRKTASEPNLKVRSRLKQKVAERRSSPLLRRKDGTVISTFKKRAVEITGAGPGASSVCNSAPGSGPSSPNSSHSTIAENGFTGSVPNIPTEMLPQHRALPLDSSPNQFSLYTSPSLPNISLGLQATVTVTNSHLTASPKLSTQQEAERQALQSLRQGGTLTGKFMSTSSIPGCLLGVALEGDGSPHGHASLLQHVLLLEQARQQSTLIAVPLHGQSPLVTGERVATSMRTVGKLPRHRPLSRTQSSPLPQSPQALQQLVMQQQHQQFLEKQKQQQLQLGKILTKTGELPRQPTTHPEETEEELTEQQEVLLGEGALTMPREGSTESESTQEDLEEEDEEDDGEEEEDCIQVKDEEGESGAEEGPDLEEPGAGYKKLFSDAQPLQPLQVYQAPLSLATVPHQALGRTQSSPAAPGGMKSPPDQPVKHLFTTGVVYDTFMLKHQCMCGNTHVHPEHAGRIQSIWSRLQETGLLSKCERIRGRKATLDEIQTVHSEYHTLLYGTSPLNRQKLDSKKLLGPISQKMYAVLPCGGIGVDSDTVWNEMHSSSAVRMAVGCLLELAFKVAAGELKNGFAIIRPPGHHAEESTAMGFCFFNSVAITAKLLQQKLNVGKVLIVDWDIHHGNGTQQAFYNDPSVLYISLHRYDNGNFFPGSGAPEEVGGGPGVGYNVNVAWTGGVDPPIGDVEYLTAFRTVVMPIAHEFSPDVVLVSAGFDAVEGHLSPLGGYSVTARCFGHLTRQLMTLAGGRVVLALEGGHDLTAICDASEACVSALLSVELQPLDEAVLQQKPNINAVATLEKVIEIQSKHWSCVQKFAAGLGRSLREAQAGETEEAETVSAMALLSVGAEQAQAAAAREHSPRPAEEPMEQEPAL
In words: HDACs enzymatic assay HDAC5. The format is biochemical. The following applies: Class IIa. How it is done:
as §1

In a further data set the target is T4, HDAC7 (Homo sapiens, UniProt Q8WUI4).
T4 construct: purchased BPS BIOSCIENCE Inc 50007
T4 sequence (Q8WUI4 whole entry): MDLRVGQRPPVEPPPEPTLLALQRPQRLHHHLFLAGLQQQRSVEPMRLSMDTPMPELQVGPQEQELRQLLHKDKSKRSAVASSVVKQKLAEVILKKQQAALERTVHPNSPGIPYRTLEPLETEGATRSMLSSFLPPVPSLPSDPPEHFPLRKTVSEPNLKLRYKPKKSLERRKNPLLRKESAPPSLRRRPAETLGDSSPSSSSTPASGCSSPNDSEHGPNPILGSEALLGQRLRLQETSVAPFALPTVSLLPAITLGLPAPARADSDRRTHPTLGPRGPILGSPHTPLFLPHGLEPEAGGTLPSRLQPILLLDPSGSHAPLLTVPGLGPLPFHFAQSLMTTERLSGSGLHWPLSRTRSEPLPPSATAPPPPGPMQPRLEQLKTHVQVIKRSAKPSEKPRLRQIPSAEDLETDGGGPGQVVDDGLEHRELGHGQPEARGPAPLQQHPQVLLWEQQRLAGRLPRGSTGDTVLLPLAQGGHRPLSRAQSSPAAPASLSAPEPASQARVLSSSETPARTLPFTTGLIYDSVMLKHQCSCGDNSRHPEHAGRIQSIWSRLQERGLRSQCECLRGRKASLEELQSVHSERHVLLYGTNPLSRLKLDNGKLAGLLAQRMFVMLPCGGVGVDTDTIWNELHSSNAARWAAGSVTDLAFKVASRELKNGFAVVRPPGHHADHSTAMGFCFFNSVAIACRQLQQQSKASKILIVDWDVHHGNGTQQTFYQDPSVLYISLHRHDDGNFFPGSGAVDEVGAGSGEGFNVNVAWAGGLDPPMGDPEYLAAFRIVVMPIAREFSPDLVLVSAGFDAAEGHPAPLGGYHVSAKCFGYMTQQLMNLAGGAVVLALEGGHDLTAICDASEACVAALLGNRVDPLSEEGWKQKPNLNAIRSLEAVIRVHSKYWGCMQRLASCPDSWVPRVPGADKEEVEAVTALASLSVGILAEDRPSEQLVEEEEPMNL
In words: HDACs enzymatic assay HDAC7. The format is biochemical. The following applies: Class IIa. The method, then: as §1

A further data set has as its target T5, HDAC11 (Homo sapiens, UniProt Q96DB2).
T5 construct: purchased BPS BIOSCIENCE Inc 50011
In words: HDACs enzymatic assay HDAC11. The format is biochemical. The conditions noted are these: Class IV. The method, then: as §1

In another data set the test system is MDA-MB-231. In words: CCK-8 antiproliferation assay. The data set is classed as cell-based, human. How it is done: Cell lines purchased from the Cell Bank of Type Culture Collection of the Chinese Academy of Sciences (Shanghai, China) were passaged after resuscitation. […] The third to tenth passages of cells were used for experiments. […] After incubation, 20 µL CCK‐8 solution (MeilunBio) was added. Two hours later, absorption was measured by a Varioskan plate at 450 nm. Inhibition curves and IC50 values were simulated and calculated using the log(inhibitor) versus response (three parameters) mode via GraphPad Prism software.

The test system of the next data set is MC38 syngeneic model. Put plainly: MC38 syngeneic model. The data set is classed as in vivo. How it is done:
C57BL/6J mice were obtained from HFK Bioscience (Beijing, China) and fed in laminar flow cabinets under SPF conditions. With the approval of the ethics committee of Shandong University, the animal experiments were conducted. […]. By the time tumors reached certain volumes, SDFZ‐8 treatment (SDFZ‐8 in PBS solution containing 5% DMSO, 60 mg/kg, qd, i.g.) was started, with five animals per treatment group. Body weight and tumor size were measured every day during the 14‐day treatment.

A further data set concerns B16F10 syngeneic model. Put plainly: B16F10 syngeneic model. The format is in vivo. The conditions noted are these: C57BL/6J mice, HDAC inhibitors by oral gavage, anti-PD-L1 intraperitoneal, 7-day treatment. The method, then: With the approval of the ethics committee of Shandong University, C57BL/6J mice were purchased from Charles River and fed in SPF conditions at the Model Animal Research Centre of Shandong University. To establish the B16F10 syngeneic model, cells in logarithmic growth phase were trypsinized with 0.25% trypsin, resuspended in sterile PBS, and adjusted to 1 × 10^6 cells/100 µL. The cell suspension (100 µL) was subcutaneously injected into the left axilla. When tumors reached to certain volume, mice were randomized (n = 5/group) and treated with Chidamide, LBH‐589, or SDFZ‐8 by oral gavage and intraperitoneal injection of anti‐PD‐L1. Tumor growth curves were plotted over a 7‐day treatment cycle. All procedures complied with AAALAC International guidelines for humane endpoint criteria.

Data set [1] deals with MDA-MB-231 cells. In words: Colony formation assay. The conditions noted are these: 2 µM, 48 h. The data set is classed as cell-based, human. The method, then:
The colony formation assay is performed by seeding 1000 MDA‐MB‐231 cells per well into 6‐well plates and allowing them to adhere overnight. […] Once colonies are visible (≥50 cells per colony), the medium is removed, and cells are gently washed with PBS, fixed with 4% paraformaldehyde for 15 min, and stained with Giemsa stain solution for 30 min. Excess stain is rinsed with water, and plates are air‐dried. Colonies are then imaged.

Data set [2] deals with MDA-MB-231 cells. In words: EdU assay. The format is cell-based, human. The following applies: MDA-MB-231, 2 µM, 24 h. The method, then:
The EdU assay is performed by BeyoClick EdU kit. MDA‐MB‐231 cells were cultured in a 6‐well plate overnight. […] Following labeling, cells are fixed with 4% PFA for 15 min, washed three times with wash buffer, and permeabilized using 0.3% Triton X‐100 for 15 min. After another wash, endogenous peroxidases are blocked for 20 min. For detection, a click reaction mix (containing Biotin Azide, CuSO4, and click additive) is added and incubated for 30 min. After washing, streptavidin–HRP is applied and reacted for 30 min, followed by 5 min DAB substrate incubation. Finally, cells are washed, optionally counterstained, and imaged under a microscope.

Data set [3] deals with MDA-MB-231 cells. In words: GreenNuc assay for caspase-3 activation. The conditions noted are these: MDA-MB-231, 24 h. The data set is classed as cell-based, human. The method, then:
Caspase‐3 activation was detected with the GreenNuc caspase‐3 assay kit for live cells (Beyotime Inc). Cells (10^5 cells per well) were seeded in black 96‐well plates and treated with different concentrations of compounds. After 24 h, the medium was discarded, and cells were treated with GreenNuc caspase‐3 substrate at room temperature for 30 min. Fluorescence intensity was measured using a Varioskan plate reader at 485/515 nm, and the final activation folds were calculated.

For orientation: IC50 means the concentration that gives 50% inhibition. A low value points to greater potency.

T5 sequence (Q96DB2 whole entry): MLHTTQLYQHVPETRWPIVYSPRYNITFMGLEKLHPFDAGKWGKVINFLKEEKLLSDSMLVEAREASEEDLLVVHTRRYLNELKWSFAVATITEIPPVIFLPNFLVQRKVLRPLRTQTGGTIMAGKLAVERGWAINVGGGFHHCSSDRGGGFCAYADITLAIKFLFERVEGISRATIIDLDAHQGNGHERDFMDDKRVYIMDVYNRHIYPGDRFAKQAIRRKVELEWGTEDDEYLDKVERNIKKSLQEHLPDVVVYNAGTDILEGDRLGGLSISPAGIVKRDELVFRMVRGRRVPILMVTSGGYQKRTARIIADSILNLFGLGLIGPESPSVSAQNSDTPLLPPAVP
T1 sequence (Q92769 whole entry): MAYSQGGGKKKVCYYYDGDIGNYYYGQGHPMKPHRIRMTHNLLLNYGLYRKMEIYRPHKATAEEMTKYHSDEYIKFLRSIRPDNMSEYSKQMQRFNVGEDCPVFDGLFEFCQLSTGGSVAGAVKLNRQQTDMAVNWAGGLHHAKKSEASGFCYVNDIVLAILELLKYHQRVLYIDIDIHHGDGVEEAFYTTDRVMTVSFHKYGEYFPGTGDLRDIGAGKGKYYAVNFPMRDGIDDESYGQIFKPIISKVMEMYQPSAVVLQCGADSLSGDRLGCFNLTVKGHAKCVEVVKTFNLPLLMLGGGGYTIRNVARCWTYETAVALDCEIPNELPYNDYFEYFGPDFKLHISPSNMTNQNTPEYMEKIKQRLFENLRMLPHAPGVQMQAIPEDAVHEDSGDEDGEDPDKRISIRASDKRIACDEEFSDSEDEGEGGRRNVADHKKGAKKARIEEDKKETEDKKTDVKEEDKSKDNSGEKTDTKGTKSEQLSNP

Turning to `O=C(CCCCCCNC(=O)c1cc(OCCc2ccccc2)c2ccccc2n1)NO` [SDFZ-8], the IC50 against HDAC2 was 5.8 ± 1.5 nM; at HDAC8 (Class I, mean ± SD of three) it was 750 ± 70 nM; against HDAC5, above 10000 nM; against HDAC7 it was above 10000 nM; on HDAC11, above 10000 nM; with MDA-MB-231 (Homo sapiens, MDA-MB-231, 48 h treatment, CCK-8) it was 470 ± 80 nM. The “selectivity toward HDAC8” value at HDAC8 (relative to HDAC1) was “more than 800 fold”. The “antiproliferation activity better than SAHA” value in the data set with MDA-MB-231 (MDA-MB-231 cells, versus SAHA) is “threefold”. Further, in the data set with MC38 syngeneic model, the “toxicity in organs (heart, liver, spleen, lung, kidney), H&E staining” value was “low toxicity”. In addition, the TGI in the data set on MC38 syngeneic model (C57BL/6J mice, SDFZ-8 60 mg/kg qd i.g., 14-day treatment) came to 71%; in the data set on B16F10 syngeneic model it was 75%. Moreover, the “colony formation of MDA-MB-231” value in the data set on MDA-MB-231 cells [1] was “significantly inhibited”. Further, the EdU positive cells result in the data set with MDA-MB-231 cells [2] is “decreased”. In addition, the caspase-3 activation result in the data set with MDA-MB-231 cells [3] was “significantly higher than that observed for SAHA”.
